Holding throughout (test): microbe, parasite or virus in culture
The subject of one assay is K. pneumonia. It is filed as cell-based, Klebsiella pneumoniae. The settings on record: Klebsiella pneumoniae; 96-well plate, serial dilutions, 32 °C, 13–18 h, 200 rpm, OD 550 nm. Here is the method:
(§1) Quantification of the antimicrobial resistance against various AMPs was carried out by measuring the bacterial growth in the presence of peptides at serial dilutes in 96 well plates in a microplate (96-well plate) reader Infinite® M200 PRO Multimode Microplate Reader (Tecan, Maennedorf, Switzerland) according to our recent reports. All bacterial strains were incubated at 32 °C for 13–18 h at 200 rpm. Optical density measurements (λ = 550 nm) were taken automatically at 10 min intervals. Antimicrobial resistance activity was quantified as the minimum inhibitory concentration (MIC)—the lowest concentration of a peptide which prevents growth of bacterial cells.

For the next assay, the system named is S. aureus. It is filed as cell-based, Staphylococcus aureus. The settings on record: Staphylococcus aureus; 96-well plate, serial dilutions, 32 °C, 13–18 h, 200 rpm, OD 550 nm. As to the method: as §1
Another assay has as its system E. coli. The format is cell-based, Escherichia coli. The settings on record: Escherichia coli; 96-well plate, serial dilutions, 32 °C, 13–18 h, 200 rpm, OD 550 nm; lowest concentration preventing growth. Here is the method: as §1
For another assay, the system named is C. acnes. It is filed as cell-based, Cutibacterium acnes. The settings on record: Cutibacterium acnes; 96-well plate, serial dilutions, 32 °C, 13–18 h, 200 rpm, OD 550 nm. Here is the method: as §1
Another assay concerns P. aeruginosa. It is filed as cell-based, Pseudomonas aeruginosa. The settings on record: Pseudomonas aeruginosa; 96-well plate, serial dilutions, 32 °C, 13–18 h, 200 rpm, OD 550 nm. Here is the method: as §1
The test system of a further assay is E. faecium. It is filed as cell-based, Enterococcus faecium. The settings on record: Enterococcus faecium; 96-well plate, serial dilutions, 32 °C, 13–18 h, 200 rpm, OD 550 nm. As to the method:
as §1

The structures appear in SMILES notation. Converted amounts (≈) assume the structure as drawn.

As to `CC[C@H]1OC(=O)[C@H](C)[C@@H](O[C@H]2C[C@@](C)(OC)[C@@H](O)[C@H](C)O2)[C@H](C)[C@@H](O[C@@H]2O[C@H](C)C[C@H](N(C)C)[C@H]2O)[C@](C)(O)C[C@@H](C)CN(C)[C@H](C)[C@@H](O)[C@]1(C)O` [Azythromycin, Azithromycin dihydrate, reference compound], the MIC was 8 µg/mL against K. pneumonia and 0.5 µg/mL in the assay with S. aureus.

With `O=C(OOC(=O)c1ccccc1)c1ccccc1` [Benzoyl peroxide, reference compound], the MIC against E. coli turned out to be 31 µg/mL (≈ 128 µM); against S. aureus it was 1250 µg/mL (≈ 5160 µM); in the assay with C. acnes it was 80 µg/mL (≈ 330 µM).

On to `[H]/N=C(\N/C(=N/[H])NCCCCCCNC(=N)NC(=N)Nc1ccc(Cl)cc1)Nc1ccc(Cl)cc1` [Chlorhexidine, chlorhexidine, reference compound], for which the MIC amounted to 16 µg/mL (≈ 31.7 µM) in the assay with E. coli, 1 µg/mL (≈ 1.98 µM) against P. aeruginosa, 1 µg/mL (≈ 1.98 µM) against S. aureus and 1 µg/mL (≈ 1.98 µM) against C. acnes.

For the compound `CC[C@H]1OC(=O)[C@H](C)[C@@H](O[C@H]2C[C@@](C)(OC)[C@@H](O)[C@H](C)O2)[C@H](C)[C@@H](O[C@@H]2O[C@H](C)C[C@H](N(C)C)[C@H]2O)[C@](C)(OC)C[C@@H](C)C(=O)[C@H](C)[C@@H](O)[C@]1(C)O` [Claritromycin, clarithromycin, reference compound], the MIC is 64 µg/mL (≈ 85.6 µM) with K. pneumonia and 0.25 µg/mL (≈ 0.334 µM) against S. aureus.

With `CNC(C)C1CCC(N)C(OC2C(N)CC(N)C(OC3OCC(C)(O)C(NC)C3O)C2O)O1` (stereo not shown) [Gentamicin, gentamicin, reference compound], the MIC in the assay with E. coli stood at 1 µg/mL (≈ 2.09 µM); with P. aeruginosa, 0.25 µg/mL (≈ 0.523 µM); with K. pneumonia, 0.25 µg/mL (≈ 0.523 µM); in the assay with E. faecium it was 1 µg/mL (≈ 2.09 µM); against S. aureus it was 0.25 µg/mL (≈ 0.523 µM).

The record behind these values is article PMC10044245, “Comparative Evaluation of Existing and Rationally Designed Novel Antimicrobial Peptides for Treatment of Skin and Soft Tissue Infections” (Antibiotics, 2023).
